Patent US20050084546A1, “Antioxidant and antiactinic tea plant products” (priority 2003, published 2005)

Tests used:
Fibroblasts = experiment: UV cytotoxicity assay, cell count in hemocytometer; type: cell-based
Experimental: Fibroblasts, grown in Dulbecco medium (DM) supplemented with fetal calf serum are plated in 24 well plates at a density of 20,000 cells per well. Twelve hours after plating, fresh DM with fetal calf serum is added. After an additional 12 hours various test materials as set forth in Table 3, are added to the wells. Six, twelve and twenty four hours later, cultures are exposed to UV at varying low and high doses. The low dose is chosen to stimulate growth and cause a hyper-proliferative response, while the higher dose is chosen to induce cytotoxic effects. After 72 and 144 hours, cells are trypsinized, and counted in a hemocytometer chamber. The cytotoxicity test results using the indicated quantities of the test materials to inhibit free radical toxicity, are set forth in Table 3, below. The control is an aliquot of water.

Cytochrome C = experiment: In vitro cytochrome C oxidation-reduction assay in the presence of isolated neutrophils (antioxidant activity); type: biochemical
From the text: An in vitro cytochrome C oxidation-reduction assay conducted in the presence of isolated neutrophils is used to assess the antioxidant activity of a group of test materials comprising aqueous extracts of the inventive mixed tea blend prepared by the method of Example 3 having the concentrations indicated in Table 1, below, and known antioxidant materials, namely green tea extract, white tea extract, grape polyphenols and vitamin E, as controls. Reduction of cytochrome C by free radicals causes an increase in light absorbence at 550 nm. Cytochrome C is an ubiquitous iron-containing cellular respiratory enzyme. Singlet oxygen prevents free radical reduction and the consequent increase in light absorbance. The oxidation-reduction assay determines the ability of the test materials to control the activity of chemically generated singlet oxygen, permitting the reductive free radicals to induce increased light absorbence, which is measured.
The assay system employed, determination of the impact of singlet oxygen on a biological entity, cytochrome C, is believed to be a useful model of in vivo activity. However, the invention is not dependent upon this or any other theory.

[1] = tested on: fibroblasts and keratinocytes; experiment: Free radical (ROS, xanthine oxidase/hypoxanthine) cytotoxicity inhibition, MTT dye method; type: cell-based; settings: about 24 hours
From the text: Xanthine oxidase and hypoxanthine, referenced “XO” in Table 2, are employed together as a system to generate free radicals such as hydrogen peroxide, the hydroxyl radical and superoxide, as is known in the art. The free radical products of xanthine oxidase and hypoxanthine referenced “ROS” hereinafter, provide a test system which can be used to model the ability of test materials to protect biological organisms against the action of free radicals.
Test 2 determines the ability of the group of test materials employed in Test 1 to reduce ROS cytotoxicity to fibroblasts and keratinocytes. Cells are seeded in 96-well plates and grown for two days. They are then exposed for about 24 hours to hypoxanthine at 100 □ g/ml and to various concentrations of xanthine oxidase, ranging, as shown in Table 2's column headers, from 2 mU/ml to 40 mU/ml. Fresh culture medium is added after exposure to ROS and cell death is assessed by the conventional MTT dye method wherein light absorbence at 570 nm is measured. Only living cells take up the MTT dye which absorbs at the measurement wavelength. The cytotoxicity test results, using the quantity of the test materials listed to inhibit free radical toxicity, are set forth in Table 2, below. The control is an aliquot of water.

[2] = tested on: stratum corneum (skin cell turnover); experiment: In vivo inhibition of UV-induced skin cell renewal, dansyl chloride staining technique; set-up: species or system human
Experimental: The dansyl chloride staining technique is used to measure rates of skin cell turnover, under normal conditions and under conditions of exposure to ultraviolet light with and without protection from various test materials.
Summarizing known procedural methods, the stratum corneum is stained with fluorescent dansyl chloride by applying semi-occlusive patches of 5% dansyl chloride milled into petrolatum for 24 hours. After assuring that the stain is completely taken up by the stratum corneum layers by viewing under a quartz mineral lamp, subjects are instructed to apply water or the test product. Skin sites are treated with the various doses of UV indicated in MED in Table 6A, below, 3 days prior to and 1 day after patching with dansyl chloride. Visual inspection of the sites under UV lamp is made until the stain disappears reflecting the time required for complete turnover of the full thickness stratum corneum. Changes in cell renewal due to test material effects and UV exposure can be expressed as a percentage change compared to water-treated or untreated controls.

vitamin E was tested, and the “Cell Survival after Exposure to UV” value (Fibroblasts; UV 1 mJ/cm2) was 65%, the “Cell Survival after Exposure to UV” value (Fibroblasts; UV 2 mJ/cm2) was 42% and the “Cell Survival after Exposure to UV” value (Fibroblasts; UV 5 mJ/cm2) was 35%. The “Cell Survival after Exposure to UV” value (Fibroblasts; UV 10 mJ/cm2) was 20%, the “Inhibition of Cytochrome C Oxidation” value (Cytochrome C; test material 0.1 μg/ml) was 21% and the “Inhibition of Cytochrome C Oxidation” value (Cytochrome C; test material 1.0 μg/ml) was 15%. The “Inhibition of Cytochrome C Oxidation” value (Cytochrome C; test material 10 μg/ml) was 11%, the “Inhibition of Cytochrome C Oxidation” value (Cytochrome C; test material 25 μg/ml) was 14% and the “Cell Survival after Exposure to ROS Free Radicals” value ([1]; XO 2 mU, hypoxanthine […]) was 89%. The “Cell Survival after Exposure to ROS Free Radicals” value ([1]; XO 10 mU, hypoxanthine 100 µg/ml) was 47%, the “Cell Survival after Exposure to ROS Free Radicals” value ([1]; XO 20 mU, hypoxanthine 100 µg/ml) was 25% and the “Cell Survival after Exposure to ROS Free Radicals” value ([1]; XO 40 MU, hypoxanthine […]) was 13%. For the same substance, the “Hyperproliferative Effect” value ([2]; decrease in turnover time with UV versus no UV) was 41.9%, the “Skin cell turnover, No UV Exposure” value ([2]; time for dansyl chloride stain to disappear (Table 5 gives turnover in days), no UV) was 18.1 and the “Skin cell turnover, UV Exposure” value ([2]; time for dansyl chloride stain to disappear (Table 5 gives turnover in days), with UV exposure) was 10.5. For the same substance, the “Protection against UV-induced hyperproliferation (in words)” value ([2]; topical, UV exposure) was “no protection”.
